Values after ≈ are worked out from the molar mass of the structure shown. Values joined by “and” are separate entries in the source; they are usually repeats but may differ in a detail not shown here. Equal values may be shown once.
Columns and labels:
Assay in all cases: ≥ marks a high value that may be exact or a test limit, other limits are often not marked, values filed in µg/mL are converted to µM
Bacillus cereus = test system: Bacillus cereus
Escherichia coli = test system: Escherichia coli
Pseudomonas aeruginosa = test system: Pseudomonas aeruginosa
Staphylococcus aureus = test system: Staphylococcus aureus
[1] = test system: Pseudomonas aeruginosa ATCC 27853
[2] = test system: Staphylococcus aureus ATCC 25923
[3] = test system: Escherichia coli ATCC 25922
[4] = test system: Staphylococcus epidermidis ATCC 12228

| MIC (Escherichia coli) | MIC (Pseudomonas aeruginosa) [µM] | MIC (Staphylococcus aureus) [µM] | Compound | other results |
| --- | --- | --- | --- | --- |
| > 119 µM | – | – | CC[C@H](C)[C@H](NC(=O)CNC(=O)[C@H](C)NC(=O)[C@H](Cc1ccc(O)cc1)NC(=O)[C@@H](NC(=O)[C@H](CC(C)C)NC(=O)[C@H](C)N)C(C)C)C(=O)N[C@@H](CCCCN)C(=O)N[C@@H](CCCCN)C(=O)N[C@H](C(=O)N[C@@H](C)C(=O)N[C@@H](Cc1ccccc1)C(=O)N[C@@H](CC(C)C)C(=O)N[C@@H](CCCCN)C(=O)N[C@H](C(=O)N[C@@H](CCC(N)=O)C(=O)N[C@@H](CCCCN)C(=O)N[C@@H](CS)C(=O)N[C@@H](CC(=O)O)C(=O)NCC(=O)O)C(C)C)[C@@H](C)O [ALVYAGIKKTAFLKVQKCDG] | MIC (Bacillus cereus): ≥ 119 µM |
| > 124 µM | – | – | CSCC[C@H](NC(=O)[C@@H](N)Cc1ccccc1)C(=O)N[C@@H](CCCCN)C(=O)N[C@H](C(=O)N[C@@H](CC(C)C)C(=O)N[C@@H](C)C(=O)N[C@H](C(=O)N[C@@H](Cc1ccccc1)C(=O)NCC(=O)N[C@@H](CO)C(=O)N[C@H](C(=O)N[C@H](C(=O)N[C@H](C(=O)N[C@@H](CO)C(=O)N[C@@H](C)C(=O)N1CCC[C@H]1C(=O)N[C@@H](CCCCN)C(=O)N[C@@H](C)C(=O)N[C@@H](CO)C(=O)N[C@@H](CCCCN)C(=O)O)[C@@H](C)O)C(C)C)C(C)C)C(C)C)C(C)C [FMKVLAVFGSVVTSAPKASK] | MIC (Bacillus cereus): ≥ 124 µM |
| 75 µM (≈ 184 µg/mL) | > 75 | > 75 | CSCC[C@H](NC(=O)[C@H](C)NC(=O)[C@H](CCC(=O)O)NC(=O)CNC(=O)[C@@H](NC(=O)[C@H](Cc1ccccc1)NC(=O)[C@H](C)NC(=O)[C@H](CCCCN)NC(=O)CNC(=O)[C@H](Cc1ccccc1)NC(=O)[C@H](CCCN=C(N)N)NC(=O)[C@H](CCCCN)NC(=O)[C@H](C)NC(=O)[C@H](CO)NC(=O)[C@H](Cc1cnc[nH]1)NC(=O)[C@H](CC(C)C)NC(=O)[C@H](Cc1ccccc1)NC(=O)[C@H](CCCCN)NC(=O)CNC(=O)[C@H](CC(C)C)NC(=O)CN)C(C)C)C(=O)N[C@@H](CC(N)=O)C(=O)N[C@@H](CO)C(N)=O [GLGKFLHSAKRFGKAFVGEAMNS] | – |
| 7.3 µM and 5 µM and 2.5 µM | 86.6 (≈ 165 µg/mL) | 25.8 (≈ 49.3 µg/mL) | CC[C@H](C)[C@H](N)C(=O)N[C@@H](CC(N)=O)C(=O)N[C@@H](Cc1c[nH]c2ccccc12)C(=O)N[C@@H](CCCCN)C(=O)N[C@@H](CCCCN)C(=O)N[C@H](C(=O)N[C@@H](C)C(=O)N[C@@H](CO)C(=O)N[C@H](C(=O)NCC(=O)N[C@@H](CCCCN)C(=O)N[C@@H](CCC(=O)O)C(=O)N[C@H](C(=O)N[C@@H](CC(C)C)C(=O)N[C@@H](CCCCN)C(=O)N[C@@H](C)C(=O)N[C@@H](CC(C)C)C(N)=O)C(C)C)[C@@H](C)CC)[C@@H](C)CC [INWKKIASIGKEVLKAL] | – |
| > 118 µM | – | – | CC[C@H](C)[C@H](NC(=O)[C@H](CCCCN)NC(=O)[C@@H](NC(=O)[C@@H](NC(=O)[C@H](Cc1ccc(O)cc1)NC(=O)[C@@H](NC(=O)[C@@H](N)CCCCN)C(C)C)C(C)C)C(C)C)C(=O)N[C@@H](C)C(=O)N[C@H](C(=O)N1CCC[C@H]1C(=O)N[C@@H](CS)C(=O)N[C@@H](Cc1ccccc1)C(=O)N1CCC[C@H]1C(=O)N[C@@H](CCCCN)C(=O)N[C@@H](CO)C(=O)N[C@@H](C)C(=O)N[C@@H](CCCN=C(N)N)C(=O)N[C@@H](CO)C(=O)N[C@H](C(=O)N[C@@H](CO)C(=O)O)C(C)C)C(C)C [KVYVVKIAVPCFPKSARSVS] | MIC (Bacillus cereus): ≥ 118 µM |
| 59.8 µM (≈ 128 µg/mL) | – | – | CC(C)C[C@H](NC(=O)[C@H](CCCCN)NC(=O)[C@H](Cc1ccccc1)NC(=O)[C@@H](NC(=O)[C@H](C)NC(=O)[C@@H]1CCCN1C(=O)[C@@H](N)CC(C)C)C(C)C)C(=O)N[C@@H](C)C(=O)N[C@@H](CO)C(=O)N[C@@H](CCCCN)C(=O)N[C@H](C(=O)N[C@@H](Cc1ccccc1)C(=O)N1CCC[C@H]1C(=O)N[C@@H](C)C(=O)N[C@H](C(=O)N[C@@H](Cc1ccc(O)cc1)C(=O)N[C@@H](CS)C(=O)N[C@@H](CCCCN)C(=O)N[C@@H](C)C(=O)N[C@@H](CO)C(=O)O)C(C)C)C(C)C [LPAVFKLASKVFPAVYCKAS] | MIC (Bacillus cereus): ≥ 120 µM |

Further lines, the compound ahead of its results:

| Compound | MIC (Escherichia coli) | MIC (Pseudomonas aeruginosa) [µM] | MIC (Staphylococcus aureus) [µM] | other results |
| --- | --- | --- | --- | --- |
| CC[C@H](C)[C@H](NC(=O)[C@H](CCCCN)NC(=O)[C@H](C)NC(=O)CNC(=O)[C@@H](NC(=O)[C@H](CCCCN)NC(=O)[C@@H](NC(=O)[C@H](CCCCN)NC(=O)[C@H](C)NC(=O)CNC(=O)[C@H](Cc1c[nH]c2ccccc12)NC(=O)[C@H](CCCCN)NC(=O)[C@@H](NC(=O)[C@H](CCCCN)NC(=O)[C@H](C)NC(=O)CNC(=O)[C@@H](NC(=O)[C@@H](N)CCCCN)[C@@H](C)CC)[C@@H](C)CC)[C@@H](C)CC)[C@@H](C)CC)C(N)=O [KIGAKIKWGAKIKIGAKI] | 4.16 µM (≈ 8 µg/mL) | 4.16 (≈ 8 µg/mL) | 4.16 (≈ 8 µg/mL) | – |
| CC[C@H](C)[C@H](NC(=O)[C@H](C)NC(=O)CNC(=O)[C@H](CCCCN)NC(=O)[C@@H](NC(=O)[C@H](CCCCN)NC(=O)[C@@H](NC(=O)[C@H](C)NC(=O)CNC(=O)[C@H](CCCCN)NC(=O)[C@H](Cc1c[nH]c2ccccc12)NC(=O)[C@H](CCCCN)NC(=O)[C@@H](NC(=O)[C@H](C)NC(=O)CNC(=O)[C@H](CCCCN)NC(=O)[C@@H](NC(=O)[C@@H](N)CCCCN)[C@@H](C)CC)[C@@H](C)CC)[C@@H](C)CC)[C@@H](C)CC)C(N)=O [KIKGAIKWKGAIKIKGAI] | 4.16 µM (≈ 8 µg/mL) | 8.32 (≈ 16 µg/mL) | 8.32 (≈ 16 µg/mL) | – |
| CC[C@H](C)[C@H](NC(=O)[C@H](C)NC(=O)CNC(=O)[C@@H](NC(=O)[C@H](CCCCN)NC(=O)[C@H](CCCCN)NC(=O)[C@@H](NC(=O)[C@H](C)NC(=O)CNC(=O)[C@H](Cc1c[nH]c2ccccc12)NC(=O)[C@H](CCCCN)NC(=O)[C@H](CCCCN)NC(=O)[C@@H](NC(=O)[C@H](C)NC(=O)CNC(=O)[C@@H](NC(=O)[C@H](CCCCN)NC(=O)[C@@H](N)CCCCN)[C@@H](C)CC)[C@@H](C)CC)[C@@H](C)CC)[C@@H](C)CC)C(N)=O [KKIGAIKKWGAIKKIGAI] | 66.5 µM (≈ 128 µg/mL) | 66.5 (≈ 128 µg/mL) | > 133 | – |
| CC[C@H](C)[C@H](NC(=O)[C@H](C)NC(=O)[C@H](CCCCN)NC(=O)[C@H](CC(C)C)NC(=O)[C@H](C)NC(=O)[C@@H](NC(=O)[C@H](Cc1cnc[nH]1)NC(=O)[C@H](C)NC(=O)[C@@H](NC(=O)[C@@H](NC(=O)[C@H](CCCCN)NC(=O)[C@H](CCCCN)NC(=O)[C@H](C)NC(=O)[C@H](CO)NC(=O)[C@H](CCCCN)NC(=O)[C@H](Cc1ccccc1)NC(=O)[C@@H](NC(=O)[C@H](CCCCN)NC(=O)[C@H](C)NC(=O)[C@H](Cc1ccccc1)NC(=O)[C@H](CO)NC(=O)[C@H](CCCCN)NC(=O)[C@H](Cc1c[nH]c2ccccc12)NC(=O)[C@H](CCCCN)NC(C)=O)[C@@H](C)O)[C@@H](C)O)C(C)C)[C@@H](C)O)C(=O)N[C@@H](CO)C(=O)N[C@@H](CO)C(N)=O [KWKSFAKTFKSAKKTVAHTALKAISS] | – | – | – | MIC [1]: 125 µM (≈ 363 µg/mL); MIC [2]: 125 µM (≈ 363 µg/mL); MIC [3]: 125 µM (≈ 363 µg/mL); MIC [4]: 125 µM (≈ 363 µg/mL) |
| CC[C@H](C)[C@H](NC(=O)[C@H](Cc1ccccc1)NC(=O)[C@H](CO)NC(=O)[C@H](CCCCN)NC(=O)[C@H](Cc1c[nH]c2ccccc12)NC(=O)[C@@H](N)CCCCN)C(=O)N[C@@H](CCCCN)C(=O)N[C@@H](CCCCN)C(=O)N[C@@H](CC(C)C)C(=O)N[C@H](C(=O)N[C@@H](CO)C(=O)N[C@@H](CCCCN)C(=O)N[C@@H](Cc1ccccc1)C(=O)N[C@@H](CC(C)C)C(=O)N[C@@H](Cc1cnc[nH]1)C(=O)N[C@@H](CO)C(=O)N[C@@H](C)C(=O)N[C@@H](CCCCN)C(=O)N[C@@H](CCCCN)C(=O)N[C@@H](CC(N)=O)C(N)=O)[C@@H](C)O [KWKSFIKKLTSKFLHSAKKN] | – | 2.58 (≈ 6.25 µg/mL) | – | – |
| CC[C@H](C)[C@H](NC(=O)[C@H](Cc1c[nH]c2ccccc12)NC(=O)[C@H](CCCN=C(N)N)NC(=O)[C@H](CCC(N)=O)NC(=O)[C@@H](NC(=O)[C@H](Cc1c[nH]c2ccccc12)NC(=O)[C@H](CCCN=C(N)N)NC(=O)[C@@H](N)CCCN=C(N)N)C(C)C)C(=O)N[C@@H](CCCN=C(N)N)C(=O)N[C@@H](CCCN=C(N)N)C(=O)N[C@@H](Cc1c[nH]c2ccccc12)C(=O)N[C@@H](CCCN=C(N)N)C(=O)N[C@@H](CCCCN)C(=O)N[C@@H](Cc1c[nH]c2ccccc12)C(=O)N[C@H](C(=O)O)C(C)C [RRWVQRWIRRWRKWV] | – | 20 (≈ 45.4 µg/mL) | 20 (≈ 45.4 µg/mL) | – |
| CC[C@H](C)[C@H](NC(=O)CNC(=O)[C@H](CC(C)C)NC(=O)[C@@H](NC(=O)[C@H](Cc1ccc(O)cc1)NC(=O)[C@@H](NC(=O)[C@H](CO)NC(=O)[C@@H](NC(=O)[C@@H]1CCCN1C(=O)[C@@H](NC(=O)[C@@H](N)CO)C(C)C)[C@@H](C)O)C(C)C)[C@@H](C)O)C(=O)N[C@@H](CCCCN)C(=O)N[C@H](C(=O)N[C@@H](CC(C)C)C(=O)N[C@@H](Cc1c[nH]c2ccccc12)C(=O)N[C@@H](CO)C(=O)N[C@@H](C)C(=O)N[C@@H](Cc1ccc(O)cc1)C(=O)N[C@@H](CCCCN)C(=O)N[C@@H](Cc1cnc[nH]1)C(=O)O)[C@@H](C)CC [SVPTSVYTLGIKILWSAYKH] | – | – | – | MIC [4]: 50 µM (≈ 113 µg/mL) |
| CC(C)C[C@H](NC(=O)[C@H](Cc1ccc(O)cc1)NC(=O)[C@H](Cc1ccc(O)cc1)NC(=O)CNC(=O)[C@H](Cc1c[nH]c2ccccc12)NC(=O)[C@@H](N)CO)C(=O)NCC(=O)N[C@@H](CCCCN)C(=O)N[C@@H](CCCCN)C(=O)N[C@@H](C)C(=O)N[C@@H](CCCN=C(N)N)C(=O)N[C@@H](Cc1c[nH]c2ccccc12)C(=O)N[C@@H](CC(N)=O)C(=O)N[C@@H](CC(C)C)C(=O)N[C@@H](CCCCN)C(=O)N[C@@H](Cc1cnc[nH]1)C(=O)N1CCC[C@H]1C(=O)N[C@@H](Cc1ccc(O)cc1)C(=O)N[C@H](C(=O)N[C@@H](CCC(N)=O)C(=O)N[C@@H](Cc1ccccc1)C(=O)O)C(C)C [SWGYYLGKKARWNLKHPYVQF] | – | – | – | MIC [4]: > 50 µM |
| CC(C)C[C@H](NC(=O)[C@H](Cc1ccc(O)cc1)NC(=O)[C@H](Cc1ccc(O)cc1)NC(=O)CNC(=O)[C@H](Cc1c[nH]c2ccccc12)NC(=O)[C@@H](N)CO)C(=O)NCC(=O)O [SWGYYLG] | – | – | – | MIC [4]: > 50 µM |
